The values below are quoted from earlier work in patent US7666442B2 (Tracie Martyn International, LLC, priority 2004, dated 2010).

Structures are written as SMILES.

The conditions of data set [1]: orally at dosages above 500 mg/kg body weight in animal studies.
For data set [2] the following is noted: using only natural ingredients (botanicals, antioxidants, coffe oil and microfine zinc oxide).

Take `NCCC(=O)N[C@@H](Cc1cnc[nH]1)C(=O)O` [Carnosine, beta-alanyl-L-histidine]: the “Safety after oral administration” value in data set [1] is on record as “safe”.

For `Cc1ncc(CO)c(CN)c1O` [Pyridoxamine, 4-aminomethyl-5-hydroxy-6-methyl-3-pyridinemethanol], the Water solubility result is “water-soluble”.

For `COc1ccc(C=CC(=O)OCCC(C)C)cc1` [isoamyl-p-methoxycinnamate], in data set [2], the spf result was “greater than 30”.
